In patent US10508120B2, “TYK2 inhibitors and uses thereof” (Nimbus Lakshmi, Inc., priority 2017, dated 2019):

What was measured:
[1] = target: JAK2 kinase domain (JH1) (Homo sapiens (Human), UniProt O60674); experiment: JAK2 Radioactive Kinase Assay; assay type: biochemical; settings: 10 μM compound, 10 μM ATP; for inhibition at 10 µM: read-out: JAK2 JH1% Inhibition @ 10 μM
Method in brief: (§1)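 Read-out is percent inhibition from a radioactive kinase reaction, measured with compound at 10 μM.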

[2] = target: Tyk2 kinase domain (DH1) (Homo sapiens (Human), UniProt P29597); experiment: Tyk2 Radioactive Kinase Assay; assay type: biochemical; settings: 10 μM compound, 10 μM ATP; for inhibition at 10 µM: read-out: Tyk2 JH1% Inhibition @ 10 μM
Method in brief: as §1

[3] = target: JAK2/JAK2 homdimeric complex (Homo sapiens (Human), UniProt O60674); experiment: GM-CSF Induced pSTAT5 in Human PBMC; assay type: cell-based; settings: GM-CSF 5 ng/mL for 20 minutes, pSTAT5 by MSD, read-out: PBMC_GMCSF_pSTAT5 IC50
[4] = target: human TYK2 (JH2domain-pseudokinase) (Homo sapiens (Human), UniProt P29597); experiment: TYK2 JH2 Domain Binding Assay (KINOMEscan)
Method in brief: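 Pseudokinase domain binding was measured by qPCR of tagged, bead-retained kinase after 1 h room-temperature competition, with 0.9% DMSO and compound up to 30,000 nM in 3-fold steps. Hill-equation Kd, duplicate.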

Chain of JAK2 kinase domain (JH1) (O60674 849-1124): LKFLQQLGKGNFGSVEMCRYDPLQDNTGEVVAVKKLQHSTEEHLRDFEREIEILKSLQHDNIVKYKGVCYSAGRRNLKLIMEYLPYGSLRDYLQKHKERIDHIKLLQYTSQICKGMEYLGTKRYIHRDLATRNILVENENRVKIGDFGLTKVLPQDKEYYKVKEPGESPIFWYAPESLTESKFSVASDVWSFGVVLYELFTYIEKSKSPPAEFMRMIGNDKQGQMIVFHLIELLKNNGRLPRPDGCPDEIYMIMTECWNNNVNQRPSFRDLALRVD
Chain of Tyk2 kinase domain (DH1) (P29597 897-1176): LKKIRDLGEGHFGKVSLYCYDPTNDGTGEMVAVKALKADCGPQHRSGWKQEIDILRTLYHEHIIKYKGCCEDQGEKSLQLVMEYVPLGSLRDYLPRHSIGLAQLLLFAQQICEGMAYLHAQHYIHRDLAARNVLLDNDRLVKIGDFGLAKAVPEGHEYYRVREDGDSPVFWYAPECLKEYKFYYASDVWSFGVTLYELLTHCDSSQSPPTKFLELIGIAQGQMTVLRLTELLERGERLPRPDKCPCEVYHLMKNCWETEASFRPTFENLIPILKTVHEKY
Chain of JAK2/JAK2 homdimeric complex (O60674 whole entry, the tested form may be a part): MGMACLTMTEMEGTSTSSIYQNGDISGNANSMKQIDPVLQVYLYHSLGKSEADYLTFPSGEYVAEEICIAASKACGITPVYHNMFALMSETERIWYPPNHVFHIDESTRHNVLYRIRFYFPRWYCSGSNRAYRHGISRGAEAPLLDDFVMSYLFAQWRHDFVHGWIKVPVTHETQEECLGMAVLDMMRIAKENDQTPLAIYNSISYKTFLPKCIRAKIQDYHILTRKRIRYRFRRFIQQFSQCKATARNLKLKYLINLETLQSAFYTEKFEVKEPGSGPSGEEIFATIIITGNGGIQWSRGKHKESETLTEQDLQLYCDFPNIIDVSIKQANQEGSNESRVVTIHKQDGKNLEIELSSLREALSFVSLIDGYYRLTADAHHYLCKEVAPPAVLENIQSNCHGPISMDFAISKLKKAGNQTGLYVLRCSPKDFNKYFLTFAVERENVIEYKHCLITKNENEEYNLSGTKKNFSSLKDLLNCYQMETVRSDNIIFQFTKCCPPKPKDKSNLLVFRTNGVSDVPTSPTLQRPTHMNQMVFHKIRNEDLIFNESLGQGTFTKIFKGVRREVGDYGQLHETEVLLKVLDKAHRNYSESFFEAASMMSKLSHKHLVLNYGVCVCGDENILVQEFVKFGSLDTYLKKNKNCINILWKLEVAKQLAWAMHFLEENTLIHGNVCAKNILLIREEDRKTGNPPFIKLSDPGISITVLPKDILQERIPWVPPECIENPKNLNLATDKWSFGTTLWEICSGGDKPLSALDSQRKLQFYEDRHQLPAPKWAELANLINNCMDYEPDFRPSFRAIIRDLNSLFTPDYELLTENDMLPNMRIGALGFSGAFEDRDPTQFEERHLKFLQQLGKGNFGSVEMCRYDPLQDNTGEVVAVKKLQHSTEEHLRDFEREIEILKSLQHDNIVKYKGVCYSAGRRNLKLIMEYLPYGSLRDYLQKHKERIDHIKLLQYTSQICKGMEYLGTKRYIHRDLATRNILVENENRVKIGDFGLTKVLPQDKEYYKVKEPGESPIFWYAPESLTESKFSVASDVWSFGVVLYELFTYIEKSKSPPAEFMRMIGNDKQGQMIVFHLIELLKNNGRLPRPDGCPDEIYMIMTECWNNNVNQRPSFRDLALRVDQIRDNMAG
Chain of JAK2/JAK2 homdimeric complex (P32927 17-897 partner): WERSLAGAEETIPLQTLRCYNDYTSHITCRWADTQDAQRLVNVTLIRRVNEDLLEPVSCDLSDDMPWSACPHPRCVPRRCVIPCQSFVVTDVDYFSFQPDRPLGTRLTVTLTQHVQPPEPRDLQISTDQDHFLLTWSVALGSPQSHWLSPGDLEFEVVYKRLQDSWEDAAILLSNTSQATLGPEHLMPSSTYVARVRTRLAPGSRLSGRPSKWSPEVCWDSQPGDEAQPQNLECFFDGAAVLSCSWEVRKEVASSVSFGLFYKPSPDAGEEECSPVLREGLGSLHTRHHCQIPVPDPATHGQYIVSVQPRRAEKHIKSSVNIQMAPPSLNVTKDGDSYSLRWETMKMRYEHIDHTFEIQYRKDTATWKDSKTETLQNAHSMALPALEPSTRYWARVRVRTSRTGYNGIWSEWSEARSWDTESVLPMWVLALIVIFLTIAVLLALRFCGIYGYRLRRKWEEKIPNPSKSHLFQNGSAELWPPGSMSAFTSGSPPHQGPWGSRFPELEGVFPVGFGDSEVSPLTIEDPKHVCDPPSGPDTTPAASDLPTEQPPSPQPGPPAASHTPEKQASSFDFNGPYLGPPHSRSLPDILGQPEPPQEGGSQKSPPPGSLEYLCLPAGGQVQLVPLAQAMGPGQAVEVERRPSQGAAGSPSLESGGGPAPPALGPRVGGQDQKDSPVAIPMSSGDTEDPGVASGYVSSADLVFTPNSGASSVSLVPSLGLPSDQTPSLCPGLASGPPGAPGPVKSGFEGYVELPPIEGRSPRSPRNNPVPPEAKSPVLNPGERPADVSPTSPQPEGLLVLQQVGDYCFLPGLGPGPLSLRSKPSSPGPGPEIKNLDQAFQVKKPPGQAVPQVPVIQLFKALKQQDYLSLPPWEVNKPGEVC
Chain of human TYK2 (JH2domain-pseudokinase) (P29597 556-888): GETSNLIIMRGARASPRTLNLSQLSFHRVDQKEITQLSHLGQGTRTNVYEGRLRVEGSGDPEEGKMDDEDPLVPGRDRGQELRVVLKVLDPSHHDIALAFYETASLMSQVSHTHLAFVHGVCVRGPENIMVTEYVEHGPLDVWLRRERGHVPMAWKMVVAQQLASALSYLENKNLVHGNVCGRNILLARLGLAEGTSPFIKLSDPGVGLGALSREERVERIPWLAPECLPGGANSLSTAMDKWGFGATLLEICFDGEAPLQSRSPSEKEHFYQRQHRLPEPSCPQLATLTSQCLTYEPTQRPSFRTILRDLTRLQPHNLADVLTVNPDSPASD

| Structure (SMILES) | inhibition at 10 µM [1] | inhibition at 10 µM [2] | IC50 [3] | Kd [4] | JAK2 JH1% Inhibition @ 10 μM [1] | Tyk2 JH1% Inhibition @ 10 μM [2] |
| --- | --- | --- | --- | --- | --- | --- |
| CNc1cc(-c2cn(C3CC3)c3ncccc23)nc2c(C(=O)N[C@H]3CC[C@@H]3OC)cnn12 (stereo in doubt) [I-1067, 5-(1-cyclopropyl-1H-pyrrolo[2,3-b]pyridin-3-yl)-N-(2-methoxycyclobutyl)-7-(methylamino)pyrazolo[1,5-a]pyrimidine-3-carboxamide] | < 50% | < 50% | > 12.5 µM | < 0.0002 µM |  |  |
| CNc1cc(Nc2cccn([C@H]3CCCC[C@H]3O)c2=O)nc2c(C(=O)NC3CC3)cnn12 [I-878] | < 50% | < 50% | > 50 µM | < 0.0002 µM |  |  |
| CNc1cc(Nc2cccn(C3CCC[C@H](OC)C3)c2=O)nc2c(C(=O)NCC(C)(C)CO)cnn12 (some centres unmarked) [I-958] | < 50% | < 50% | > 50 µM | < 0.0002 µM |  |  |
| CNc1cc(Nc2cccn([C@H]3CC[C@](C)(OC)CC3)c2=O)nc2c(C(=O)N[C@@H]3CC[C@H]3O)cnn12 [I-962] |  |  | > 50 µM | < 0.0002 µM | A (percent inhibition at 10 μM lower than 50) | A (percent inhibition at 10 μM lower than 50) |
| CNc1cc(Nc2cccn([C@H]3CCC[C@H]3O)c2=O)nc2c(C(=O)NC3CC3)cnn12 [I-963] | < 50% | < 50% | > 50 µM | < 0.0002 µM |  |  |
| CNc1cc(Nc2cccc(N3CCCC3=O)n2)nc2c(C(=O)N[C@H]3CC[C@H]3O)cnn12 [I-969] | < 50% | < 50% | > 50 µM | < 0.0002 µM |  |  |
| CNc1cc(Nc2cccn([C@H]3CCC[C@@H](OC)C3)c2=O)nc2c(C(=O)N[C@H]3CC[C@@H]3OC)cnn12 [I-996] |  |  | > 50 µM | < 0.0002 µM | A (percent inhibition at 10 μM lower than 50) | A (percent inhibition at 10 μM lower than 50) |
| CNc1cc(Nc2cccn([C@H]3CCC[C@H](OC)C3)c2=O)nc2c(C(=O)NCC3(CO)CC3)cnn12 [I-1010] | < 50% | < 50% | > 50 µM | < 0.0002 µM |  |  |
| CNc1cc(Nc2cccn(-c3cnco3)c2=O)nc2c(C(=O)N[C@H]3CC[C@H]3O)cnn12 [I-1017] | < 50% | < 50% | > 12.5 µM | < 0.0002 µM |  |  |
| CNc1cc(Nc2cccn([C@@H]3CC[C@H]3OC)c2=O)nc2c(C(=O)N[C@@H]3C[C@@H]3F)cnn12 [I-1022] | < 50% | < 50% | > 12.5 µM | < 0.0002 µM |  |  |
| CNc1cc(Nc2cccn([C@H]3CCC[C@H](OC)C3)c2=O)nc2c(C(=O)NC3CC3)cnn12 [I-1025] | < 50% | < 50% | > 50 µM | < 0.0002 µM |  |  |
| CNc1cc(Nc2cccn([C@H]3CCN(CCF)C3)c2=O)nc2c(C(=O)N[C@H]3CC[C@@H]3OC)cnn12 [I-1050, 5-((1-((S)-1-(2-fluoroethyl)pyrrolidin-3-yl)-2-oxo-1,2-dihydropyridin-3-yl)amino)-N-((1 S,2S)-2-methoxycyclobutyl)-7-(methylamino)pyrazolo[1,5-a]pyrimidine-3-carboxamide] | < 50% | < 50% | > 50 µM | < 0.0002 µM |  |  |
| CNc1cc(Nc2cccn3ccnc23)nc2c(C(=O)N[C@H]3CC[C@@H]3OC)cnn12 [I-1052] | < 50% | < 50% | > 50 µM | < 0.0002 µM |  |  |
| CNc1cc(Nc2cccn([C@H]3CCC[C@H](O)C3)c2=O)nc2c(C(=O)N[C@H]3CC[C@@H]3OC)cnn12 [I-1063] | < 50% | < 50% | > 50 µM | < 0.0002 µM |  |  |
| CNc1cc(Nc2cccn(-c3ncc(C)s3)c2=O)nc2c(C(=O)N[C@@H]3CC[C@H]3O)cnn12 [I-1070] | < 50% | < 50% | > 12.5 µM | < 0.0002 µM |  |  |
| CNc1cc(Nc2cccn(-c3ncc(C)s3)c2=O)nc2c(C(=O)N[C@@H]3CC[C@@H]3O)cnn12 [I-1073] | < 50% | < 50% | > 50 µM | < 0.0002 µM |  |  |
| CNc1cc(Nc2cccn([C@H]3CC[C@@H]3O)c2=O)nc2c(C(=O)N[C@H]3CC[C@@H]3OC)cnn12 [I-1094] | < 50% | < 50% | > 50 µM | < 0.0002 µM |  |  |

The next lines start with results.

| inhibition at 10 µM [1] | inhibition at 10 µM [2] | IC50 [3] | Kd [4] | Structure (SMILES) | JAK2 JH1% Inhibition @ 10 μM [1] | Tyk2 JH1% Inhibition @ 10 μM [2] |
| --- | --- | --- | --- | --- | --- | --- |
| < 50% | < 50% | > 12.5 µM | < 0.0002 µM | CNc1cc(Nc2cc(Cl)cn(-c3cnn(C)c3F)c2=O)nc2c(C(=O)NC3CC3)cnn12 [I-955] |  |  |
| < 50% | < 50% | > 50 µM | < 0.0002 µM | CNc1cc(Nc2cccn([C@H]3CCC[C@H]3O)c2=O)nc2c(C(=O)N[C@@H]3C[C@@H]3F)cnn12 [I-965] |  |  |
| < 50% | < 50% | > 50 µM | < 0.0002 µM | CNc1cc(Nc2cccn([C@@H]3CC[C@H]3O)c2=O)nc2c(C(=O)N[C@@H]3C[C@@H]3F)cnn12 [I-999] |  |  |
|  |  | > 12.5 µM | < 0.0002 µM | CNc1cc(Nc2cccn(-c3cccc(F)c3)c2=O)nc2c(C(=O)N[C@H]3CC[C@H]3O)cnn12 [I-1004] | A (percent inhibition at 10 μM lower than 50) | A (percent inhibition at 10 μM lower than 50) |
| < 50% | < 50% | > 12.5 µM | < 0.0002 µM | CNc1cc(-c2cn(C(C)C)c3ncc(F)cc23)nc2c(C(=O)N[C@H]3CC[C@H]3O)cnn12 [I-1013, 5-(5-fluoro-1-isopropyl-1-pyrrolo[2,3-b]pyridin-3-yl)-N-(2-hydroxycyclobutyl)-7-(methylamino)pyrazolo[1,5-a]pyrimidine-3-carboxamide] |  |  |
| < 50% | < 50% | > 50 µM | < 0.0002 µM | CNc1cc(Nc2cccn([C@H]3CCC[C@H](OC)C3)c2=O)nc2c(C(=O)NCC(C)(C)CO)cnn12 [I-1027] |  |  |
| < 50% | < 50% | > 2.5 µM | < 0.0002 µM | CNc1cc(Nc2cccn([C@@H]3CCC[C@@H](O)C3)c2=O)nc2c(C(=O)N[C@@H]3C[C@@H]3F)cnn12 [I-1029] |  |  |
| < 50% | < 50% | > 2.5 µM | < 0.0002 µM | CNc1cc(Nc2cccn(-c3ccccc3F)c2=O)nc2c(C(=O)N[C@H]3CC[C@H]3O)cnn12 [I-1035] |  |  |
| < 50% | < 50% | > 50 µM | < 0.0002 µM | CNc1cc(Nc2cccn(-c3ccccc3F)c2=O)nc2c(C(=O)N[C@H]3CC[C@@H]3O)cnn12 [I-1038] |  |  |
| < 50% | < 50% | > 2.5 µM | < 0.0002 µM | CNc1cc(Nc2cccn([C@H]3CCC[C@H](OC)C3)c2=O)nc2c(C(=O)N[C@@H]3CC3F)cnn12 (some centres unmarked) [I-1042] |  |  |
| < 50% | < 50% | > 2.5 µM | < 0.0002 µM | CNc1cc(-c2cn(C3CCOCC3)c3ncccc23)nc2c(C(=O)NC3CCC3O)cnn12 (centres unmarked) [I-1048, N-(2-hydroxycyclobutyl)-7-(methylamino)-5-(1-(tetrahydro-2H-pyran-4-yl)-1H-pyrrolo[2,3-b]pyridin-3-yl)pyrazolo[1,5-a]pyrimidine-3-carboxamide] |  |  |
| < 50% | < 50% | > 50 µM | < 0.0002 µM | CNc1cc(Nc2cccc3ocnc23)nc2c(C(=O)NC3CC[C@@H]3OC)cnn12 (some centres unmarked) [I-1051, 5-(benzo[d]oxazol-4-ylamino)-N-(2-methoxycyclobutyl)-7-(methylamino) pyrazolo[1,5-a]pyrimidine-3-carboxamide] |  |  |
| < 50% | < 50% | > 12.5 µM | < 0.0002 µM | CNc1cc(-c2cn(C(C)C)c3ncc(F)cc23)nc2c(C(=O)N[C@H]3CC[C@@H]3OC)cnn12 [I-1053, 5-(5-fluoro-1-isopropyl-1H-pyrrolo[2,3-b]pyridin-3-yl)-N-((1S,2S)-2-methoycyclobutyl)-7-(methylamino)pyrazolo[1,5-a]pyrimidine-3-carboxamide] |  |  |
| < 50% | < 50% | > 50 µM | < 0.0002 µM | CNc1cc(Nc2cccn([C@H]3CCCC[C@H]3O)c2=O)nc2c(C(=O)N[C@@H]3CC[C@H]3OC)cnn12 [I-1057] |  |  |
| < 50% | < 50% | > 50 µM | < 0.0002 µM | CNc1cc(Nc2cccn([C@H]3CCCN(CCF)C3)c2=O)nc2c(C(=O)N[C@@H]3CC[C@H]3OC)cnn12 [I-1059] |  |  |
| < 50% | < 50% | > 50 µM | < 0.0002 µM | CNc1cc(Nc2cccn(-c3cnn(C)c3F)c2=O)nc2c(C(=O)N[C@H]3CC[C@@H]3OC)cnn12 [I-1066] |  |  |
| < 50% | < 50% | > 50 µM | < 0.0002 µM | CNc1cc(Nc2cccn([C@@H]3CCC[C@H](OC)C3)c2=O)nc2c(C(=O)N[C@@H]3CC[C@H]3OC)cnn12 [I-1082] |  |  |
| < 50% | < 50% | > 50 µM | < 0.0002 µM | CNc1cc(Nc2cccn([C@@H]3CC[C@H]3O)c2=O)nc2c(C(=O)N[C@H]3CC[C@@H]3OC)cnn12 [I-1093] |  |  |
